Here are results for 1 compound from US20110230659A1, “CYCLOBUTYL PURINE DERIVATIVE, ANGIOGENESIS PROMOTING AGENT, LUMEN FORMATION PROMOTING AGENT, NEUROCYTE GROWTH PROMOTING AGENT, AND DRUG” (NATIONAL UNIVERSITY CORPORATION KAGAWA UNIVERSITY, priority 2008, published 2011).

Test [1] deals with rat adrenal medulla-derived cell line PC12. The test is described as follows: Differentiation of PC12 cells, AChE activity (Ellman's method). It counts as cell-based. As to conditions: 2-Cl—C.OXT-A 50 μmol/l and 100 μmol/l, sixth day of culture. The protocol: Three samples were prepared by adding additives shown in Table 5 below to PBS so as to achieve predetermined concentrations. Also, an evaluation medium was prepared by adding each sample or PBS to DMEM (no serum) so that its concentration became 10 v/v %. Furthermore, as a control medium, a medium containing only DMEM (no serum) was prepared. The PC12 cells were suspended at a density of 5×10^4 cells/ml in DMEM to which 5 v/v % cow serum and 10 v/v % horse serum had been added. Thus, a cell suspension was prepared. 3 ml of the cell suspension was inoculated into a 6 petri dish. […] On the sixth day of the culture, the cells were photographed under a microscope, and the AChE activity was measured according to the Ellman's method (Ellman, G. L., et al., Biochem. Pharmacol., 7, pp. 88-95, (1961)). Specifically, the AChE activity was measured in the following manner. […] The sample solution, 75 μl of 10 mmol/l DTNB, and 3.0 ml of 0.1 mol/l phosphate buffer solution (pH 8.0) were added to a […] for absorbance measurement, and finally, 50 μl of 100 mmol/l acetylthiocholine was added to cause a reaction. The absorbance of the reaction solution at 412 nm was measured for 5 minutes from immediately after the addition of the ace tylthiocholine. From the thus-measured absorbances, the amount of increase in absorbance (C) per minute was determined. […]

Test [2] concerns Human umbilical vein endothelial cells (HUVEC). The test is described as follows: Measurement of cell proliferation (Cell Counting Kit-8). The format is cell-based. As to conditions: HUVEC, 48 hours. Here is the method:
Sample solutions were prepared by dissolving 2-Cl—C.OXT-A in physiological saline so as to achieve predetermined concentrations (0.5, 1, 5, 10, 50, 100 mmol/l). Then, the sample solutions containing 2-Cl—C.OXT-A at the predetermined concentrations respectively were added to HuMedia-EB2 media (Kurabo) to which 2 v/v % inactivated fetal bovine serum (FBS) had been added so that their concentrations became 10 v/v %. Thus, cell proliferation media were prepared. The final concentrations of 2-Cl—C.OXT-A in the cell proliferation media were 50, 100, 500 μmol/l, 1, 5, and 10 mmol/1.
Human umbilical vein endothelial cells (HUVEC) suspended in a HuMedia-EG2 medium (Kurabo) were inoculated into each of gelatin-coated wells of a 96-well plate at a density of 3×10^3 cells per well, and cultured for 24 hours. 24 hours after the start of the culture, the medium was removed, and 100 μl of the cell proliferation medium was added to each well. The cells were cultured for another 48 hours. After the completion of the culture, a color reaction was caused using a Cell Counting Kit-8 (Dojindo Laboratories). 2 hours after the start of the reaction, the absorbance at 450 nm was measured using a microplate reader. As a control, a HuMedia-EB2 medium (Kurabo) to which 2 v/v % inactivated fetal bovine serum (FBS) had been added was used instead of the cell proliferation medium to carry out the culture, and a color reaction was caused and the absorbance was measured in the same manner as in the above. Then, using the following equation (I), the relative absorbance in the culture using each of the cell proliferation media containing 2-Cl—C.OXT-A at the predetermined concentrations was calculated.

For test [3], the system named is ERK. As to the kind of experiment: ERK activation (phosphorylation) immunoblot in HUVEC. The format is cell-based, human. The settings on record: Example 8, medium No. 11: 2-Cl—C.OXT-A 100 μmol/l.

For `Nc1nc(Cl)nc2c1ncn2C1CC(CO)C1CO` (stereo not drawn) [2-Cl—C.OXT-A, 6-amino-2-chloro-9-[trans-trans-2,3-bis(hydroxymethyl)cyclobutyl]purine], in test [1], the “AChE enzyme activity (relative value)” value is given as “increased”. Moreover, in test [2] (final concentration 50 μmol/l to 1 mmol/l, relative to control), the “relative absorbance (cell proliferation)” value is “higher than 1”. In test [2] (final concentration 5 mmol/l or higher), the cell proliferation result is reported as “suppressed in a concentration-dependent manner”. The pERK result in test [3] is listed as “increased”.
